Assay results: patent US8623839B2, “Compositions and methods for stabilized polysaccharide formulations” (DePuy Mitek, LLC, priority 2011, dated 2014)

What was measured:
[1] = system: rabbit anterior cruciate ligament transection (ACLT) model of OA; test: Rabbit ACLT model of osteoarthritis, modified Mankin scale; assay type: in vivo; conditions: 5% solution in 3 mM glycine-HCl buffer pH approx. 3, intra-articular weekly for seven weeks, euthanasia at 8 weeks; vs untreated animals (FIG. 9)
Method: The trehalose formulation (a 5% trehalose solution in 3 mM glycine-HCl buffer having a pH of approximately 3) described above was also tested in the rabbit anterior cruciate ligament transection (ACLT) model of OA. The ACLT surgery destabilized the rabbit knee to a greater extent than meniscal transection, resulting in not only substantial cartilage deterioration but also osteophyte formation. Studies investigating the development and regulation of osteophyte formation in the rabbit model of OA have detected plate-like formations as early as 4 weeks post-ACLT, and osteophyte growth in all compartments of the knee by 12 weeks post-ACLT.
Rabbits were anesthetized. The patellar fat pad was retracted, and the ACL was isolated. The anterior cruciate ligament was severed with a surgical blade. The fibrous capsule and subcutaneous tissue were closed prior to the skin being sutured. Beginning one week after surgery, intra-articular injections were given weekly for seven weeks, followed by euthanasia at 8 weeks. Cartilage degradation was determined histologically using a modified Mankin scale. Higher scores indicated more extensive cartilage degradation, with a maximum score of 18.
[…] decreased cartilage degeneration as a result of the intra-articular trehalose injections.

[2] = system: rat medial meniscal tear (MMT) model of osteoarthritis; test: Rat MMT model of osteoarthritis, histology; assay type: in vivo
From the text: In the rat medial mensical tear (MMT) model of osteoarthritis, transection of the medial meniscus results in joint deterioration and reduced weight bearing that mimics human osteoarthritis. A unilateral medial meniscal tear in 300-400 gram rats results in rapidly progressive cartilage degenerative changes characterized by chondrocyte and proteoglycan loss, fibrillation, osteophyte formation and chondrocyte cloning. Such changes are typically observed to be substantial by day 21 following the meniscal surgery. The extent of joint deterioration, as determined primarily by the extent of cartilage lesions formed, can be measured using a semi-quantitative histological scoring system.
To test the utility of trehalose as a vehicle for intra-articularly injected compounds, a solution of trehalose was formulated as a 5% solution in 3 mM glycine-HCl buffer, having a pH of approximately 3. The solution was tested in the rat MMT model. Transection of the medial collateral ligament just below attachment to the meniscus was performed on 15 male Lewis rats. The meniscus was cut at its narrowest point (away from the ossicles) taking care not to damage the tibial surface.
Beginning three days after MMT surgery, intra-articular injections of the trehalose solution were given weekly for five weeks, followed by euthanasia at week six.
Such measurements are taken using an ocular micrometer from stained histological cross sections of the medial compartment of the joint.
These measurements are taken using an ocular micrometer from stained histological cross sections of the medial compartment of the joint.
Cartilage preservation also correlated to the extent of collagen degeneration. […] The extent of collagen degeneration is defined as follows: […]
Severe damage (total or near total loss of collagen to tidemark, >90% thickness)
Marked damage (extends through 61-90% of the cartilage thickness)
Moderate damage (extends thru 31-60% of the cartilage thickness)
Mild damage (extends through 11-30% of the cartilage thickness)
Minimal damage (very superficial, affecting upper 10% only)
Cartilage degeneration scores were determined histologically by estimating the area of non-viable (significant chondrocyte and proteoglycan loss but collagen retention) and completely absent cartilage matrix, then estimating the percentage of that area compared to the area of the extrapolated original cartilage cross sectional area. A score of 1-5 is assigned, with a score of 1 indicating cartilage degeneration of 10% or less, and a score of 5 indicating complete cartilage degeneration. In FIG. 8, Zone 1 refers to the one third of the medial tibial plateau closest to the transected meniscus. […]

OC[C@H]1O[C@H](O[C@H]2O[C@H](CO)[C@@H](O)[C@H](O)[C@H]2O)[C@H](O)[C@@H](O)[C@@H]1O [trehalose, α-D-glucopyranosyl α-D-glucopyranoside]
modified Mankin score [1]: significant improvement | width of significant cartilage lesions (chondrocyte and proteoglycan loss through 50% or more of cartilage thickness) ([2]; 5% solution in 3 mM glycine-HCl buffer pH approx. 3, intra-articular weekly for five weeks, euthanasia at week six, vs no treatment (FIG. 5)): significant reduction | lesion Depth Ratio ([2]; 5% solution, intra-articular weekly for five weeks, vs no treatment (FIG. 6)): significant improvement | width of cartilage lesions with marked or severe collagen depletion ([2]; 5% solution, intra-articular weekly for five weeks, vs no treatment (FIG. 7)): significantly reduced | cartilage degeneration score of medial tibial plateau ([2]; all three zones, 5% solution, intra-articular weekly for five weeks (FIG. 8)): statistically improved
